From ChEMBL document CHEMBL1127407, “Unambiguous total synthesis of the enantiomers of myo-inositol 1,3,4-trisphosphate: 1L-myo-inositol 1,3,4-trisphosphate mobilizes intracellular Ca2+ in Limulus photoreceptors” (J Med Chem, 1994)

Columns and labels:
[1] = Peak depolarizations produced by injections of 100 micro M Ins p3 isomers in nine cells; assay type: cell-based
[2] = Peak depolarizations produced by injections of 100 micro M Ins p3 isomers in six cells; assay type: cell-based

Compound `O=P(O)(O)OC1C(O)C(O)C(OP(=O)(O)O)C(OP(=O)(O)O)C1O` (stereo in doubt; form 1) [INOSITOL (1,4,5) (PHOSPHATE)3] has a Depolarisation [1] of 24 mV.

`O=P(O)(O)OC1C(O)C(O)C(OP(=O)(O)O)C(OP(=O)(O)O)C1O` (stereo in doubt; form 2) [INOSITOL (1,4,5) (PHOSPHATE)3] gave a Depolarisation [2] of 32.5 mV.

`O=P(O)(O)OC1C(O)C(O)C(OP(=O)(O)O)C(OP(=O)(O)O)C1O` (stereo in doubt; form 3) [INOSITOL (1,4,5) (PHOSPHATE)3] showed a Depolarisation [1] of 5.7 mV and a Depolarisation [2] of 3.4 mV.
